Tests used:
[1] = tested on: pCHK1 (S345) in Colo320 DM cells; assay: Alphalisa assay, detection of pCHK1 (S345) in Colo320 DM cells; type: cell-based, human; conditions: Homo sapiens, COLO 320DM, compound overnight (approximately 16 hours)
In short: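 Phospho-CHK1 (S345) read by AlphaLisa SureFire in lysates of human colorectal Colo320 DM cells. Compound treatment ran overnight (~16 h, 37 °C, DMSO <0.5%) on cells seeded the day before.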

human hepatocytes = assay: Human hepatocyte stability assay; type: in vitro ADME; conditions: 0.5×10^6 viable cells/ml, time points 0.5 and 60 minutes
Protocol: 1. 10 mM stock solutions of test compounds and positive control were prepared in DMSO. Thawing medium and supplement incubation medium (serum-free) were placed in a 37° C. water bath for at least 15 minutes prior to use.
2. Stock solutions were diluted to 100 μM by combining 198 μL acetonitrile and 2 μL of 10 mM stock solution. Verapamil was use as positive control in the assay.
3. Vials of cryopreserved human hepatocytes were removed from storage, while ensuring that vials remain at cryogenic temperatures. The pressure was removed by loosening and re-tightening the cap. The vials were thawed in a 37° C. water bath with gentle shaking. Vials remained in the water bath until all ice crystals had dissolved and were no longer visible. Vials were sprayed with 70% ethanol before being transferred to a biosafety cabinet. Then the contents were poured into a 50 mL thawing medium conical tube. Vials were centrifuged at 100 g for 10 minutes at room temperature. Thawing medium was aspirated and hepatocytes were re-suspended with serum-free incubation medium to yield ˜1.5×10^6 cells/mL.
4. Cell viability and density were counted using Cellometer® Vision, and then cells were diluted with serum-free incubation medium to a working cell density of 0.5×10^6 viable cells/ml.
5. Aliquots of 198 μL hepatocytes were dispensed into each well of a 96-well non-coated plate. The plate was placed in the incubator on an orbital shaker at 500 rpm for approximately 10 minutes.
6. Aliquots of 2 μL of the 100 μM test compounds or verapamil were added into respective wells of the non-coated 96-well plate to start the reaction. This assay was performed in duplicate. The plate was incubated in the incubator on an orbital shaker at 500 rpm for the designed time points.
7.25 μL of contents were transferred and mixed with 5 volumes (125 μL) of cold acetonitrile with IS (100 nM alprazolam, 200 nM caffeine, 100 nM labetalol and 100 nM tolbutamide) to terminate the reaction at time points of 0.5 and 60 minutes. Samples were centrifuged for 30 minutes at 3,220 g. Then transfer 100 μL of the supernatant to new 96-well plates for analysis. Add 100 μL of distilled water to each sample and mix for analysis by LC-MS/MS.
All calculations were carried out using Microsoft Excel. Peak areas were determined from extracted ion chromatograms. The in vitro half-life (tin) of the parent compound was determined by regression analysis of the percent parent disappearance vs. time curve. • a. The in vitro half-life (in vitro tin) was determined from the slope value: in vitro t1/2=0.693/k • b. Conversion of the in vitro tin (in min) into the in vitro intrinsic clearance (in vitro CLint, in μL/min/10^6 cells) was done using the following equation: […]

IC50 [1] [µM] | SMILES | Clhep (human hepatocytes)
≤ 1 | Cc1ccc(F)c([C@@H](C)[C@@H](c2n[nH]c(=O)o2)N2CN([C@H]3CCOC(C)(C)C3)c3cc(Cl)ccc3S2(=O)=O)c1C (single isomer, unassigned) [Example 90] | B (10 ml/min/kg < Clhep ≤ 20 ml/min/kg)
1 to 5 | Cc1ccc(F)c([C@@H](C)[C@@H](c2n[nH]c(=O)o2)N2CN(CCN3CCCC3)c3nc(Cl)ccc3S2(=O)=O)c1C [Example 92, 5-((1S,2R)-1-(6-chloro-1,1-dioxido-4-(2-(pyrrolidin-1-yl)ethyl)-3,4-dihydro-2H-pyrido[2,3-e][1,2,4]thiadiazin-2-yl)-2-(6-fluoro-2,3-dimethylphenyl)propyl)-1,3,4-oxadiazol-2 (3H)-one] | A (0 ml/min/kg ≤ Clhep ≤ 10 ml/min/kg)
≤ 1 | Cc1ccc(F)c([C@@H](C)[C@@H](c2n[nH]c(=O)o2)N2CN(CCN3CCOCC3)c3nc(Cl)ccc3S2(=O)=O)c1C [Example 93, 5-((1S,2R)-1-(6-chloro-4-(2-morpholinoethyl)-1,1-dioxido-3,4-dihydro-2H-pyrido[2,3-e][1,2,4]thiadiazin-2-yl)-2-(6-fluoro-2,3-dimethylphenyl)propyl)-1,3,4-oxadiazol-2 (3H)-one] | A (0 ml/min/kg ≤ Clhep ≤ 10 ml/min/kg)
1 to 5 | Cc1ccc(F)c([C@@H](C)[C@@H](c2n[nH]c(=O)o2)N2CN([C@H](C)CO)c3cc(Cl)ccc3S2(=O)=O)c1C [Example 117, 5-((1S,2R)-1-(6-chloro-4-((R)-1-hydroxypropan-2-yl)-1,1-dioxido-3,4-dihydro-2H-benzo[e][1,2,4]thiadiazin-2-yl)-2-(6-fluoro-2,3-dimethylphenyl)propyl)-1,3,4-oxadiazol-2 (3H)-one] | B (10 ml/min/kg < Clhep ≤ 20 ml/min/kg)

More lines, now with the values behind:

SMILES | IC50 [1] [µM] | Clhep (human hepatocytes)
Cc1ccc(F)c([C@@H](C)[C@@H](c2n[nH]c(=O)o2)N2CN(C3CCOC(C)(C)C3)c3cc(Cl)ccc3S2(=O)=O)c1C (single isomer, unassigned) [Example 89] | ≤ 1 | B (10 ml/min/kg < Clhep ≤ 20 ml/min/kg)
CON1CN([C@H](c2n[nH]c(=O)o2)[C@H](C)c2c(F)ccc(C)c2C)S(=O)(=O)c2ccc(Cl)cc21 [Example 116, 5-((1S,2R)-1-(6-chloro-4-methoxy-1,1-dioxido-3,4-dihydro-2H-benzo[e][1,2,4]thiadiazin-2-yl)-2-(6-fluoro-2,3-dimethylphenyl)propyl)-1,3,4-oxadiazol-2 (3H)-one] | ≤ 1 | B (10 ml/min/kg < Clhep ≤ 20 ml/min/kg)
Cc1ccc(F)c([C@@H](C)[C@@H](c2n[nH]c(=O)o2)N2CN(C3CC(=O)C3)c3cc(Cl)ccc3S2(=O)=O)c1C [Example 118, 5-((1S,2R)-1-(6-chloro-1,1-dioxido-4-(3-oxocyclobutyl)-3,4-dihydro-2H-benzo[e][1,2,4]thiadiazin-2-yl)-2-(6-fluoro-2,3-dimethylphenyl)propyl)-1,3,4-oxadiazol-2 (3H)-one] | ≤ 1 | B (10 ml/min/kg < Clhep ≤ 20 ml/min/kg)
Cc1ccc(F)c([C@@H](C)[C@@H](c2n[nH]c(=O)o2)N2CN(O)c3cc(Cl)ccc3S2(=O)=O)c1C [Example 120, 5-((1S,2R)-1-(6-chloro-4-hydroxy-1,1-dioxido-3,4-dihydro-2H-benzo[e][1,2,4]thiadiazin-2-yl)-2-(6-fluoro-2,3-dimethylphenyl)propyl)-1,3,4-oxadiazol-2 (3H)-one] | 1 to 5 | B (10 ml/min/kg < Clhep ≤ 20 ml/min/kg)
Cc1ccc(F)c([C@@H](C)[C@@H](c2n[nH]c(=O)o2)N2CN([C@@H](C)CO)c3cc(Cl)ccc3S2(=O)=O)c1C [Example 121, 5-((1S,2R)-1-(6-chloro-4-((S)-1-hydroxypropan-2-yl)-1,1-dioxido-3,4-dihydro-2H-benzo[e][1,2,4]thiadiazin-2-yl)-2-(6-fluoro-2,3-dimethylphenyl)propyl)-1,3,4-oxadiazol-2 (3H)-one] | ≤ 1 | B (10 ml/min/kg < Clhep ≤ 20 ml/min/kg)
